Like-named read-outs stand apart in the source and are kept apart here.
What was measured:
p300 [1] = biological target: T1, p300 (Homo sapiens, UniProt Q09472); experiment: HAT filter binding assay with p300; format: biochemical; conditions: for HAT activation (radioactivity counts): 200 μM, HeLa core histones as substrate
Source text: To understand the mechanistic aspects HAT activation various small molecules are derivatized from CTPB. The initial tail less derivative of CTPB is nomenclatured as N-(4Chloro-3-trifluoromethy 1-pheny 1)-2-ethoxybenzamide [CTB]. CTB is further derivatized to TTK series of compounds (COMPOUNDS 1-9) (FIG. 29 A). These compounds are subjected to histone acetyltransferase assays (filter binding assay) to check for their ability to activate p300/CBP HAT. Core histones purified from HeLa nuclear pellet is used as the substrate and p300 purified from baculovirus infected Sf21 cells is used to determine the HAT modulation activity of these compounds. All compounds are used at a concentration of 200 μM in the HAT assays.
(§1) Highly purified HeLa core histones are incubated in HAT assay buffer at about 30° C. for a time-period of about 10 minutes with or without baculo virus expressed recombinant p300 or CBP in the presence or absence of small molecules (i.e. HAT activators). The incubation is followed by the addition of about 1 μl of 3.6 Ci/mmol ^3H-acetyl CoA (NEN-PerkinElmer) and further incubation for about 10 minutes in a final volume of 30 μl at 30° C. The mixture is blotted onto P-81 (Whatman) filter paper and radioactive counts are recorded on a Wallac 1409 liquid scintillator counter. For gel fluorographic assays, histones are isolated by trichloroacetic acid (TCA) precipitation using 25% TCA. The pellet obtained is washed twice with acetone and dissolved in 2×SDS loading dye, heated for about 5 mins and is followed by separation using 15% SDS-PAGE. Comassie staining is performed to ascertain the presence of equal loading in each reaction and is later dehydrated in DMSO for about 1 hour. Dehydrated gel is later incubated in scintillation fluid (PPO solution in DMSO) for about 45 minutes and rehydrated again in distilled water for about 4 hours. The gel is then dried using a gel drier and later exposed in an X-ray cassette using a film for about 5 days in −80° cooler. The film is then developed to obtain the intensity profiles for each of the reactions.

p300 [2] = biological target: T1, p300; experiment: Gel fluorography HAT assay with p300; format: biochemical
Description: FIG. 2 depicts (A) filter binding assay to show activation of p300 by TTK21. […] TTK21 dissolved in DMSO is added to the reaction mixture at desired concentrations. Lane 1—Histone only, Lane 2—p300 enzyme added, Lane 3—DMSO added, Lane 4—50 μM TTK21, Lane 5—100 μM TTK21, Lane 6—200 μM TTK21 and Lane 7—275 μM TTK21.
as §1, with “Dehydrated gel is later incubated in scintillation fluid (PPO solution in DMSO) for about 45 minutes and rehydrated again in distilled water for about 4 hours. The gel is then dried using a gel drier and later exposed in an X-ray cassette using a film for about 5 days in −80° cooler. The film is then developed to obtain the intensity profiles for each of the reactions.” left out

CBP = experiment: HAT filter binding and gel fluorography assays with full length FLAG-CBP; format: biochemical
Description: TTK21 dissolved in DMSO is added to the reaction mixture at desired concentrations. Lane 1—Histone only, Lane 2—CBP enzyme added, Lane 3—DMSO added, Lane 4—50 μM TTK21, Lane 5—100 μM TTK21, Lane 6—200 μM TTK21 and Lane 7—275 μM TTK21.
COMPOUND 1 is synthesized using salicylic acid as a substrate as depicted in FIG. 1. […] The concentrations of COMPOUND 1 selected for this particular assay are 50 μM, 100 μM, 200 μM and 275 μM. […] These screening experiments are also repeated with full length FLAG-CBP (FIG. 3).
Highly purified HeLa core histones are incubated in HAT assay buffer at about 30° C. for a time-period of about 10 minutes with or without baculo virus expressed recombinant p300 or CBP in the presence or absence of small molecules (i.e. HAT activators). The incubation is followed by the addition of about 1 μl of 3.6 Ci/mmol ^3H-acetyl CoA (NEN-PerkinElmer) and further incubation for about 10 minutes in a final volume of 30 μl at 30° C. The mixture is blotted onto P-81 (Whatman) filter paper and radioactive counts are recorded on a Wallac 1409 liquid scintillator counter. For gel fluorographic assays, histones are isolated by trichloroacetic acid (TCA) precipitation using 25% TCA. The pellet obtained is washed twice with acetone and dissolved in 2×SDS loading dye, heated for about 5 mins and is followed by separation using 15% SDS-PAGE. […]

HeLa cells = experiment: Cell permeability: western blot of acetylated H3 in treated HeLa cells; format: cell-based
Description: (A) western blot analysis of TTK21 untreated and treated HeLa cells for 24 hours. […] Primary probing of the blot is done with AcH3 and re-probing is done by H3 antibody.

SHSY cells = experiment: Cell permeability in neural cell lines; format: cell-based
Description: The cell permeability tests of COMPOUND 1 alone is also carried out in various neural cell lines such as SHSY cells and the results are found to be similar to HeLa cells.

[3] = tested on: neurons expressing double cortin; experiment: Neurogenesis in dentate gyrus of hippocampus, doublecortin staining; format: in vivo, mice; conditions: intraperitoneal; 3 days
Description: FIG. 18 depicts CSP-TTK21 induced neurogenesis in the inner wall of dentate gyms of mice hippocampus. […] of either CSP alone or TTK21 alone or CSP-TTK21 is injected intraperitonially into mice and after 3 days the mice are anesthetized and fixed with 4% paraformaldehyde. Brains are dissected out and post-fixed, cryoprotected and frozen. 20 μm thick sections are obtained and the results are analyzed by immunohistochemistry. Further, immunofluorescence assays are performed using antibody against double cortin. Scale bar represents 50 μm.
A-D, Immunohistochemistry analysis of the dentate gyms of mice, 3 days after intraperitonial injection of either CSP alone or CSP-TTK21 (20 mg/kg of body weight) using an antibody against doublecortin (DCX) followed by DAB staining. A typical photograph is shown (A). Scale bars: 100 μm. The timeline for injection and euthanasia is shown. h, hour; d, day. […] (C) The average of the longest dendrites associated to all DCX positive-new neuron within one hippocampus is calculated and is represented as histogram for each condition (CSP: 141.1 μm vs. CSP-TTK21: 176.9 μm, *p=0.0177, 4-6 sections/animal). (D), (A) typical cropped image from A is shown, on which the number of dendrites crossing virtual lines drawned at 60, 90 and 120 μm from the SGZ was counted (n=5 images/animal). […]

T1 sequence (Q09472 whole entry, species assumed): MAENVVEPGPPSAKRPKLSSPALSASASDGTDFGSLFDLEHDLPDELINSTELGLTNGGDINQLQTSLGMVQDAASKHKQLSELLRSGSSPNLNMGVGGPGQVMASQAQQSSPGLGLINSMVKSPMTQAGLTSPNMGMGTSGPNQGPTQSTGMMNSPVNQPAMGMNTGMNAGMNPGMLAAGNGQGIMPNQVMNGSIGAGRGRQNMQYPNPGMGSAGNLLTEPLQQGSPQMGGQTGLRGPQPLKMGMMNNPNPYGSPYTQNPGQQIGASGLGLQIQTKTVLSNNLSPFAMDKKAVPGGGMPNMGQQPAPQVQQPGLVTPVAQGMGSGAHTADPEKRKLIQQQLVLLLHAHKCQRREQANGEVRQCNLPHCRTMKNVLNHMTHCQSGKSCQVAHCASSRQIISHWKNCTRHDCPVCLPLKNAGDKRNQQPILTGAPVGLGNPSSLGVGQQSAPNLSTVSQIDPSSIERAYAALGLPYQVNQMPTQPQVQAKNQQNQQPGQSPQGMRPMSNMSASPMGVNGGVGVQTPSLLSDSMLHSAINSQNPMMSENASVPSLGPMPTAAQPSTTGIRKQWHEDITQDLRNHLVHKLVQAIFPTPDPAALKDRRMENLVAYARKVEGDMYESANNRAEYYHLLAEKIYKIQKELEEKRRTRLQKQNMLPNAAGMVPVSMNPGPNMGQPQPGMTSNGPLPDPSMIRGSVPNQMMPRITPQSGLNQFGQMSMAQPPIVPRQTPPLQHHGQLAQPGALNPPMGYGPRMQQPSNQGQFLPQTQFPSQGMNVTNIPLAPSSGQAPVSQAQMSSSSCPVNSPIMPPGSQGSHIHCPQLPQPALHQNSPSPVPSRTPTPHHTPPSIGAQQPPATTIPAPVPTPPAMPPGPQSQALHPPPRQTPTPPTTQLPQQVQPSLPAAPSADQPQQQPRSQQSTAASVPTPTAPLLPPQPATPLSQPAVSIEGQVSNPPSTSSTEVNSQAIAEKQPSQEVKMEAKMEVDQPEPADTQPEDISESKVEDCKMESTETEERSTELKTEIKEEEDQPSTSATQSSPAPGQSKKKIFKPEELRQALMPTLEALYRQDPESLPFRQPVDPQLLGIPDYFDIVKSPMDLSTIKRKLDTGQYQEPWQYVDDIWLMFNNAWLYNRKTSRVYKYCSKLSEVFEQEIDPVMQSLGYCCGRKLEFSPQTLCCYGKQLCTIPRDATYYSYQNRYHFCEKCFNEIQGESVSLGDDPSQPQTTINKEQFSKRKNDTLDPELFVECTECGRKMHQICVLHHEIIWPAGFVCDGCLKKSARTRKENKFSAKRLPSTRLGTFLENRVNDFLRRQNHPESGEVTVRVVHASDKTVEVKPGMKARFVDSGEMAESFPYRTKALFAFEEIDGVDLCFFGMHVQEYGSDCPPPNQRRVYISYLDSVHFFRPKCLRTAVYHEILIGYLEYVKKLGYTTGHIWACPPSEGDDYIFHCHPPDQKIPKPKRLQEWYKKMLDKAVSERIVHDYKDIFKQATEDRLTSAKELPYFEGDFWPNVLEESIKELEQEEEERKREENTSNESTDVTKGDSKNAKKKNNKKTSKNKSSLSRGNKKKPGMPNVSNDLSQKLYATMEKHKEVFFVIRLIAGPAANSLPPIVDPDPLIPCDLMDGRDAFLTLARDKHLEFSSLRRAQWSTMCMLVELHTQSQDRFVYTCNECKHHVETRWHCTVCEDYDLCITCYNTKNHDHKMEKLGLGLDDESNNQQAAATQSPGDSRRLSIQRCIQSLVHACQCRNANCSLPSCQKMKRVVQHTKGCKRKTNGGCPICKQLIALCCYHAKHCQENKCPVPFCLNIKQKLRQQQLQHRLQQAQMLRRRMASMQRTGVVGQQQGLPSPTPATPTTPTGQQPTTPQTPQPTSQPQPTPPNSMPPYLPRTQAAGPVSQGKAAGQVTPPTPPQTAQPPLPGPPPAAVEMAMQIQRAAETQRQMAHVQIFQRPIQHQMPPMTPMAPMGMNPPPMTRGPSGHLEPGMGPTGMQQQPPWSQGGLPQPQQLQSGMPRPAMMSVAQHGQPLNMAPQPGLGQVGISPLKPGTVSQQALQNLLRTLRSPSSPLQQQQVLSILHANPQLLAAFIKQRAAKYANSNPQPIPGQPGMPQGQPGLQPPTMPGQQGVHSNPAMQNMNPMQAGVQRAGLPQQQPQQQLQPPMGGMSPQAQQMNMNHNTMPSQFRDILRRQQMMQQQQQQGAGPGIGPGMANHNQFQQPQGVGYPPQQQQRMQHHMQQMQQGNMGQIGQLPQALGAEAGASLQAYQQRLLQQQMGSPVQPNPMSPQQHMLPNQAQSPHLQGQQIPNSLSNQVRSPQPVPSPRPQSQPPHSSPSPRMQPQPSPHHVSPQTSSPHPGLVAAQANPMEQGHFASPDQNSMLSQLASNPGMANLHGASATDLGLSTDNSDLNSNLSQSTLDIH

## CCCOc1ccccc1C(=O)Nc1ccc(Cl)c(C(F)(F)F)c1 [COMPOUND 1, N-(4-Chloro-3-trifluoromethyl-phenyl)-2-n-propoxy-benzamide]
p300 [1]
  HAT activation (radioactivity counts): one of the most efficient HAT activator
p300 [1]; listed as TTK21
  HAT activation (radioactivity counts): significant increase in radioactivity counts compared to other compounds
p300 [1]; filter binding
  concentration of maximum activation of p300: 250 to 275 µM
p300 [1]; filter binding, 50-275 μM
  activation of p300, dose dependence: Dose dependent activation of p300
p300 [1]; filter binding, tested 50, 100, 200, 275 μM
  concentration from which activation of p300 starts: 5004
p300 [2]
  concentration of maximum activation of p300: 275 µM
p300 [2]; 50-275 μM
  activation of p300, dose dependence: dose dependent manner
CBP; 50-275 μM
  activation of CBP, dose dependence: dose dependent activation of CBP
CBP; filter binding and gel fluorography
  concentration of maximum activation of CBP: 275 µM
HeLa cells
  cell permeability: inability of the COMPOUND 1 molecule itself to enter into mammalian cells
HeLa cells; 50-275 μM, 24 hrs
  histone H3 acetylation: no alteration of histone H3 acetylation
HeLa cells; listed as TTK21
  cell permeability: impermeable to cells
SHSY cells
  cell permeability: inability of the COMPOUND 1 molecule alone to enter into mammalian cells
[3]
  double cortin expression in dentate gyrus: doesn't show double cortin expression

Source: patent publication US9314539B2, “Nanosphere-histone acetyltransferase (HAT) activator composition, process and methods thereof” (JAWAHARLAL NEHRU CENTRE FOR ADVANCED SCIENTIFIC RESEARCH, priority 2012, dated 2016)
